Where “and” joins values, the source holds several entries; their conditions need not be identical. Equal values may be shown once. Entries after “also recorded” stand apart in the source; their conditions may differ. Read-outs that look alike come from different tables or passages of the source.
What was measured:
[1] = test system: anti-IgM_pAKT induced PBMC; experiment: anti-IgM induced pAKT in PBMC; assay type: cell-based
[2] = cited from earlier work
[3] = test system: xenograft model; settings: low doses; cited from earlier work
[4] = test system: AML patient sample #1910-017 cells; experiment: SCNP arm #1: modulated signaling in AML patient cells with and without kinase inhibitors; assay type: cell-based, human; settings: subject #1910-017
Experimental: (§1) Peripheral blood or bone marrow samples from AML patient were collected (n=9), which had been previously ficoll separated and cryopreserved. Patient characteristics are shown Table 7. One cryovial per patient was used. Samples were thawed and centrifuged over ficoll to remove dead cells and debris.
Arm #1 assessed basal and modulated signaling in the JAK/STAT, PI3K/mTor, and MEK/ERK pathways in the presence and absence of specific kinase inhibitors. Kinase inhibitors were added […]before the addition of the signaling stimulus. Signaling was induced by individual addition of stem cell factor, Flt3 ligand, G-CSF, IL-3, or thrombopoietin (TPO) for a short period of time (5-15 min). Cells were then fixed, permeabilized, and stained with a cocktail of cell surface and phospho-specific antibodies to measure signaling in multiple cell types. Signaling data is calculated in each cell type using a fold-change metric comparing each condition to its basal state: example: (stimulated^+/−inhibitor)/(unstimulated). Also, cells with an apoptotic phenotype were excluded from the signaling analysis by gating.

[5] = test system: pAKT and pS6 on H460 cell line; settings: cited from earlier work
[6] = test system: tumour xenografts that have abnormal PI3K signalling; settings: loss of PTEN function or gain-of-function PI3K mutations; cited from earlier work
[7] = test system: AML patient myeloid cells; experiment: SCNP arm #2: cytotoxic and cytostatic impact of drugs on AML patient cells; assay type: cell-based, human; settings: 48 hours drug culture
Excerpt: as §1
Arm #2 asessed the cytotoxic and cytostatic impact of various drugs as single agents and in combinations (including the specific kinase inhibitors tested in arm #1). Here the cells from each donor were cultured in the presence of TPO, IL-3, SCF, and FLT3L for 2 days to drive proliferation. After 2 days the cells were then distributed into wells containing various drugs, wherein the cells were cultured for 48 hours. The cultures were fixed, permeabilized, and stained with a cocktail of antibodies to measure complete cell death, apoptosis, S/G2 phase, M-Phase, and DNA damage. These readouts were also obstained from samples cultured separately with individual growth factors (no drugs) for four days.

[8] = test system: normal PBMC (lymphoid and myeloid cells); experiment: DNA damage response kinetics in normal PBMC; assay type: cell-based, human
[9] = test system: pAKT (same cells, same stim); experiment: pAKT inhibition in PBMCs (monos), GM-CSF; assay type: cell-based
[10] = test system: Ba/F3-wt (+IL-3, proliferation) JAK2 wt; settings: read-out: Reported activity Ba/F3-wt (+IL-3, proliferation) JAK2 wt; cited from earlier work
[11] = test system: proteome activity; settings: 10 nM; cited from earlier work
[12] = test system: AML cell lines; settings: read-out: IC90, proliferation of AML cell lines; cited from earlier work
[13] = test system: GM-CSF_pSTAT5; settings: 1000 nM
[14] = test system: GM-CSF_pSTAT5; experiment: cells; settings: read-out: GM-CSF_pSTAT5 inhibition IC50
[15] = human, in vivo; cited from earlier work
[16] = test system: PMA induced pERK in lymphocytes from PBMCs; experiment: PMA induced pERK in lymphocytes from PBMCs; assay type: cell-based
[17] = test system: pERK in blood lymphocytes; settings: ~1000 ng/ml plasma conc.; cited from earlier work
[18] = Plasma pharmacokinetics in patients or volunteers (values collected in Table 1); settings: human, in vivo
[19] = test system: p-S6; settings: 10 nM in vitro; cited from earlier work
[20] = test system: mantle cell line (Jeko); settings: 10 nM in vitro; cited from earlier work
[21] = test system: A2780; settings: cited from earlier work
[22] = test system: PC3; settings: read-out: inhibition of PC3 cancer cell proliferation (IC50); cited from earlier work
[23] = test system: MDA-MB-361; settings: read-out: inhibition of MDA-MB-361 cancer cell proliferation (IC50); cited from earlier work
[24] = test system: pS6 in paired tumor biopsies; settings: patients treated at 80 mg and higher; cited from earlier work
[25] = test system: pAKT levels assayed in PRP; settings: patients treated at 80 mg and higher; cited from earlier work
[26] = test system: tumor FDG avidity, CA-125; settings: cited from earlier work

In the case of `CC[C@H](Nc1ncnc2[nH]cnc12)c1nc2cccc(F)c2c(=O)n1-c1ccccc1` [CAL-101], the “block of anti-IgM induced pAKT” value ([1]; 40 nM) is given as “blocked ~90%. Ref: Herman, Sarah EM et al. Blood. Jun. 3,”, the IC50 ([1]; anti-IgM induced pAKT, PBMC, read-out: Nodality IC50) is given as about 10 nM and the “mean volume of distribution” value ([2]; human, in vivo) is given as 57.7 L. The “steady-state trough plasma concentrations above the EC50 for the in vitro whole-blood assay” value ([2]; human, in vivo) was “concentrations that are >10-fold above the EC50 for the in vitro” and the t1/2 ([2]; human, in vivo) was about 8 h.
In the case of `CC(C)(C)c1cc(NC(=O)Nc2ccc(-c3cn4c(n3)sc3cc(OCCN5CCOCC5)ccc34)cc2)no1` [AC220], the “effect in xenograft model” value [3] is given as “tumor regression in a xenograft model at low doses. Ref:” and the half-life ([2]; human, in vivo) is given as “AC220 half-life can be 2.5 days, exhibiting minimal peak and”.
For `Cn1c(=O)n(-c2ccc(C(C)(C)C#N)cc2)c2c3cc(-c4cnc5ccccc5c4)ccc3ncc21` [BEZ235], the “inhibition of SCF induced p-AKT” value [4] is listed as “complete inhibition”, the “inhibition of SCF induced p-S6” value [4] is listed as “partial inhibition” and the IC50 ([5]; read-out: pAKT 1050) is listed as 10 nM. The IC50 ([5]; read-out: pS6 1050) was 50 nM and the “activity against tumour xenografts” value [6] was “show that BEZ235 has strong anti-proliferative activity against”.
With `C[C@@H]1CCN(C(=O)CC#N)C[C@@H]1N(C)c1ncnc2[nH]ccc12` [CP690550] the “effect on high basal level of p-STAT5 signaling” value [4] was “inhibited”, the “inhibition of IL-3 signaling” value [4] was “complete inhibition” and the “inhibition of TPO signaling” value [4] was “partial inhibition”. The T½ ([2]; human, in vivo, 30 mg) was 2.6 h.
In the case of `Nc1ncn([C@H]2C[C@H](O)[C@@H](CO)O2)c(=O)n1` [Decitabine], the Cmax ([2]; 15 mg/m2 IV over 3 hrs, every 8 hrs, for 3 days) is listed as 0.3 to 1.6 µM.
In the case of `Nc1ccn([C@@H]2O[C@H](CO)[C@@H](O)[C@@H]2O)c(=O)n1` [AraC, Cytarabine], the “drug induced apoptosis / cell death of patient myeloid cells” value (“drug induced apoptosis / cell death” below) [7] is reported as “resisted apoptosis”.
For gemtuzumab ozogamicin [Mylotarg], the “kinetics in Myeloid versus Lymphoid cells” value [8] was “faster kinetics in Myeloid compared to Lymphoid cells” and the “time by which induction of p-ATM, p-Chk2 is seen” value ([8]; Myeloid cells) was at most 2 h.
In the case of `Nc1ncn([C@@H]2O[C@H](CO)[C@@H](O)[C@H]2O)c(=O)n1` [Azacitidine], the Cmax ([2]; human, in vivo) is listed as 1.42 to 4.72 µM.
In the case of `N#CCNC(=O)c1ccc(-c2ccnc(Nc3ccc(N4CCOCC4)cc3)n2)cc1` [CYT387], the IC50 [9] is listed as 129 nM, the IC90 [9] is listed as about 1000 nM and the IC50 [10] is listed as 1420 nM.
In the case of `O=C(c1cc(Cc2n[nH]c(=O)c3ccccc23)ccc1F)N1CCN(C(=O)C2CC2)CC1` [AZD2281, Olaparib], the “Cmax (maximum plasma concentration)” value ([2]; at MTD) is given as about 6000 ng/mL and the Cmax ([2]; read-out: Cmax (maximum plasma concentration), at MTD) is given as 13.8 µM.
In the case of `CC(C)C[C@H](NC(=O)[C@H](Cc1ccccc1)NC(=O)c1cnccn1)B(O)O` [Bortezomib], the “drug induced apoptosis / cell death” value [7] is listed as “effective at inducing apoptosis; also recorded: induced considerable levels of cell death and cytostasis”, the “effect on proteome activity” value [11] is listed as “blocks proteome activity [BLOOD, 16 DECEMBER 2010” and the IC90 [12] is listed as 10 to 50 nM. The “Cmax (prescribing info)” value ([2]; human, in vivo) was 112 ng/m1 and the Cmax ([2]; read-out: Cmax (prescribing info), human, in vivo) was 0.291 µM.
For `N#CC[C@H](C1CCCC1)n1cc(-c2ncnc3[nH]ccc23)cn1` [INCB018424], the “inhibition of GM-CSF_pSTAT5” value [13] is given as “Jan 2011.) 1000 nM can completely inhibit GM-CSF_pSTAT5”, the IC50 [14] is given as 215 nM and the Cmax ([2]; 100 mg 24 h) is given as 4.78 µM.
In the case of `Cn1nnc2c(C(N)=O)ncn2c1=O` [Temozolomide], the T½ ([2]; human, in vivo) is listed as 1.67 h, the “plasma concentration (Cmax) corresponding to 200 ng/m2/day” value ([2]; human, in vivo) is listed as 9300 ng/mL and the Cmax ([2]; read-out: plasma concentration (Cmax) corresponding to 200 ng/m2/day, human, in vivo) is listed as 47.9 µM. For the same compound, the “Adult MTD” value [15] was “glioblastoma multiforme patients. Adult MTD = 200 ng/m2/day”.
For `Cn1cnc2c(F)c(Nc3ccc(Br)cc3Cl)c(C(=O)NOCCO)cc21` [AZD6244], the inhibition at 1 µM ([16]; 1 μM in vitro, read-out: PMA induced pERK inhibited) was 85 to 95%, the IC50 ([16]; lymphocytes from PBMCs) was about 100 nM and the “inhibition of SCF induced p-AKT” value [4] was “no inhibition”. The “inhibition of SCF induced p-S6” value [4] was “partial inhibition”, the “inhibition of SCF-PERK” value [4] was “complete inhibition” and the “pERK inhibition (PD effect)” value [17] was 11u-post dose. PD effects of ~80% pERK inhibition can be seen at.
With `Cc1ccc(NC(=O)c2ccc(CN3CCN(C)CC3)cc2)cc1Nc1nccc(-c2cccnc2)n1` [Imatinib] the assumed trough [18] was 1000 ng/ml and 2 μM.
For `CCNC(=O)c1noc(-c2cc(C(C)C)c(O)cc2O)c1-c1ccc(CN2CCOCC2)cc1` [NVP-AUY922], the “drug induced apoptosis / cell death” value [7] was “effective at inducing apoptosis”.
In the case of `CO[C@H]1C[C@@H]2CC[C@@H](C)[C@@](O)(O2)C(=O)C(=O)N2CCCC[C@H]2C(=O)O[C@H]([C@H](C)C[C@@H]2CC[C@@H](OCCO)[C@H](OC)C2)CC(=O)[C@H](C)/C=C(\C)[C@@H](O)[C@@H](OC)C(=O)[C@H](C)C[C@H](C)/C=C/C=C/C=C/1C` [Everolimus], the “inhibition of p-S6” value [19] is listed as “inhibit p-S6 completely”, the “effect on proliferation of mantle cell line (Jeko)” value [20] is listed as “inhibit proliferation” and the Cmax ([2]; 10 mg/d) is listed as 61 ng/m1 and 63 nM. The trough ([2]; 10 mg/d) was 17 ng/m1 and 17.7 nM and the trough ([2]; 50 mg/wk) was “lng/ml (~1 nM). [J Clin Oncol 26: 1603-1610. 2008]. A 10 nM dose”.
For `CS(=O)(=O)N1CCN(Cc2cc3nc(-c4cccc5[nH]ncc45)nc(N4CCOCC4)c3s2)CC1` [GDC-0941], the “inhibition of SCF induced p-AKT” value [4] is listed as “partial inhibition”, the “inhibition of SCF induced p-S6” value [4] is listed as “partial inhibition” and the IC50 [21] is listed as 140 nM. The IC50 [22] was 280 nM, the IC50 [23] was 720 nM and the “decreases in pS6 staining in paired tumor biopsies” value [24] was “Decreases in pS6 staining of >50% can occur in paired tumor”. For the same compound, the “decreases in pAKT levels assayed in PRP” value [25] was “biopsies in addition to decreases of >90% in pAKT levels assayed”, the “reductions in mean SUVmax (tumor FDG avidity on PET scan)” value ([26]; 3 patients treated at ≧100 mg) was “GDC-0941 with reductions (≧30% in mean SUVmax) in tumor” and the “decrease in CA-125” value ([26]; ovarian cancer patient) was “FDG avidity observed on PET scan and an ~80% decrease in CA-”. The “mean Cmax and AUCinf with dose” value ([2]; human, in vivo) was “display dose-proportional increases in mean Cmax and AUCinf”.

Source: patent US20130218474A1, “Benchmarks for Normal Cell Identification” (priority 2012, published 2013)
